The source of these data is patent US12274732B2, “Anti-pathogen composition and methods of use thereof” (Tenfold Technologies, LLC, priority 2017, dated 2025).

Format in all cases: cell-based
Assay [1] has as its system Candida albicans. The assay can be described thus: In vitro antimicrobial activity against Candida albicans. The note with it: for IC50: Candida albicans, read-out: C. albicans IC50; for C. albicans IC50: Table 5, extracts tested at 8-200 μg/mL. The procedure: (§1) Fifty organic extracts were prepared from 25 whole broth of four microbial strains (MS1479, MS2379, MS2820, and MS2414), which were fermented in different media for the antimicrobial testing. Note each whole broth culture generated one n-butanol extract from cultural supernatant and one methanol extract from cell pellets.
(§2) The antimicrobial activities of the 50 organic extracts were studied against three fungal pathogens—Candida albicans, Aspergillus fumigatus, and Cryptococcus neoformans—and five bacterial strains-Methicillin-resistant Staphylococcus aureus (MIRSA), Escherichia coli, Pseudomonas aeruginosa, Klebsiella pneumoniae, and Vancomycin-resistant Enterococcus faecium (VRE) (FIG. 2). The test concentrations for all extracts were in the range of 8-200 μg/mL (Table 3).
(§3) The antimicrobial activities of identified fusaricidins were in an in vitro study against several clinically relevant microbes. […] For the in-vitro assays against bacteria, fusaricidins were tested against methicillin-resistant Staphylococcus aureus, vancomycin-resistant Enterococcus faecium, Escherichia coli, and Pseudomonas aeruginosa using four antibacterial drugs methicillin, vancomycin, cefotaxime, and meropenem as controls. […] Fusaricidins were also tested against fungal pathogens Cryptococcus neoformans, Candida albicans, and Aspergillus fumigatus and compared with two antifungal drugs, fluconazole and amphotericin B (Table 13). Moreover, the anti-parasitic activity was also tested against L. donovani and T. brucei (Table 14).

For assay [2], the system named is Aspergillus fumigatus. As to the kind of experiment: In vitro antimicrobial activity against Aspergillus fumigatus. The note with it: for IC50: Aspergillus fumigatus, read-out: A. fumigatus IC50; for A. fumigatus IC50: Table 5, extracts tested at 8-200 μg/mL. The procedure: as §1, §2, §3
For assay [3], the system named is Cryptococcus neoformans. The assay can be described thus: In vitro antimicrobial activity against Cryptococcus neoformans. The following applies: for IC50: Cryptococcus neoformans, read-out: C. neoformans IC50; for C. neoformans IC50: Table 5, extracts tested at 8-200 μg/mL. As to the method:
as §1, §2
The potent activities against the fungal pathogen C. neoformans and the gram-positive bacteria S. aureus, MRSA, and M. intracellulare were also shown in the crude extracts (FIG. 7).
as §3

The subject of assay [4] is Methicillin-resistant Staphylococcus aureus (MRSA). As to the kind of experiment: In vitro antimicrobial activity against MRSA. The following applies: for MIC: read-out: MRSA MIC (minimum inhibitory concentration). As to the method:
as §1, §2, §3

In assay [5] the test system is Escherichia coli. As to the kind of experiment: In vitro antimicrobial activity against Escherichia coli. The procedure: as §1, §2, §3
Assay [6] deals with Pseudomonas aeruginosa. The assay can be described thus: In vitro antimicrobial activity against Pseudomonas aeruginosa. The procedure: as §1, §2, §3
The test system of assay [7] is Klebsiella pneumoniae. As to the kind of experiment: In vitro antimicrobial activity against Klebsiella pneumoniae. The following applies: Klebsiella pneumoniae, read-out: K pneumoniae IC50. As to the method: as §1, §2
In assay [8] the test system is Vancomycin-resistant Enterococcus faecium (VRE). As to the kind of experiment: In vitro antimicrobial activity against VRE. The following applies: for MIC: read-out: VRE MIC (minimum inhibitory concentration); for VRE IC50: Table 5, extracts tested at 8-200 μg/mL. As to the method: as §1, §2, §3
Assay [9] relates to T. brucei. The assay can be described thus: In-vitro antiparasitic activity against T. brucei. As to the method:
as §3

[10] abbreviates: test conc. 200-8 μg/mL (extracts), 100-4 or 10-0.4 μg/mL (drugs).

Each structure is given as a SMILES string. Values after ≈ are worked out from the molar mass of the structure shown. Where two headings read alike, the source gives them in different places.

For `COc1cccc(OC)c1C(=O)N[C@@H]1C(=O)N2[C@@H]1SC(C)(C)[C@@H]2C(=O)O` [Methicillin], the IC50 in assay [1] (setting [10]) was over 100 µg/mL; in assay [2] (setting [10]) it was over 100 µg/mL; in assay [3] (setting [10]) it was over 100 µg/mL; in [4] (ATCC 1708 / MRSA, Table 13, Methicillin-resistant Staphylococcus aureus ATCC 1708, read-out: MRSA IC50 (50% growth inhibitory concentration)), 12.1 µg/mL (≈ 31.8 µM); in assay [4] (Staphylococcus aureus, MRSA, test conc. 200-8 μg/mL (extracts), 100-4 or 10-0.4 μg/mL (drugs), read-out: MRS IC50), 19 µg/mL (≈ 49.9 µM); in [5] (ATCC2452, Table 13, Escherichia coli ATCC 2452, read-out: E. coli IC50 (50% growth inhibitory concentration)), over 100 µg/mL. The IC50 in assay [5] (Escherichia coli, test conc. 200-8 μg/mL (extracts), 100-4 or 10-0.4 μg/mL (drugs), read-out: E. coli IC50) was over 100 µg/mL; in [6] (ATCC2108, Table 13, Pseudomonas aeruginosa ATCC 2108, read-out: P. aeruginosa IC50 (50% growth inhibitory concentration)) it was 76 µg/mL (≈ 200 µM); in assay [6] (Pseudomonas aeruginosa, test conc. 200-8 μg/mL (extracts), 100-4 or 10-0.4 μg/mL (drugs), read-out: P. aeruginosa IC50) it was 95.4 µg/mL (≈ 251 µM); in assay [7] (setting [10]), over 100 µg/mL; in assay [8] (ATCC 700221 / VRE, Table 13, Vancomycin-resistant Enterococcus faecium ATCC 700221, read-out: VRE IC50 (50% growth inhibitory concentration)), over 100 µg/mL; in assay [8] (test conc. 200-8 μg/mL (extracts), 100-4 or 10-0.4 μg/mL (drugs), read-out: VRE IC50), over 100 µg/mL. Further, the “C. albicans IC50” value in assay [1] is over 100 µg/mL. Also, in assay [2], the “A. fumigatus IC50” value is over 100 µg/mL. In addition, the “C. neoformans IC50” value in assay [3] is over 100 µg/mL. Besides, the MIC in assay [4] (ATCC 1708 / MRSA, Table 13, Methicillin-resistant Staphylococcus aureus ATCC 1708) is 50 µg/mL (≈ 131 µM); in assay [5] (ATCC2452, Table 13, Escherichia coli ATCC 2452, read-out: E. coli MIC (minimum inhibitory concentration)), over 100 µg/mL; in assay [6] (ATCC2108, Table 13, Pseudomonas aeruginosa ATCC 2108, read-out: P. aeruginosa MIC (minimum inhibitory concentration)), over 100 µg/mL; in [8] (ATCC 700221 / VRE, Table 13, Vancomycin-resistant Enterococcus faecium ATCC 700221) it was over 100 µg/mL. The “VRE IC50” value in [8] is over 100 µg/mL.

Regarding `CN[C@H](CC(C)C)C(=O)N[C@H]1C(=O)N[C@@H](CC(N)=O)C(=O)N[C@H]2C(=O)N[C@H]3C(=O)N[C@H](C(=O)N[C@H](C(=O)O)c4cc(O)cc(O)c4-c4cc3ccc4O)[C@H](O)c3ccc(c(Cl)c3)Oc3cc2cc(c3O[C@@H]2O[C@H](CO)[C@@H](O)[C@H](O)[C@H]2O[C@H]2C[C@](C)(N)[C@H](O)[C@H](C)O2)Oc2ccc(cc2Cl)[C@H]1O` [Vancomycin], the IC50 was over 100 µg/mL in assay [1]; over 100 µg/mL in [2]; over 100 µg/mL in [3]; 1.3 µg/mL (≈ 0.897 µM) in assay [4] (Staphylococcus aureus, ATCC 1708 / MRSA, read-out: MRSA IC50 (50% growth inhibitory concentration)); 0.17 µg/mL (≈ 0.117 µM) in assay [4] (Staphylococcus aureus, MRSA, read-out: MRS IC50); 62.3 µg/mL (≈ 43 µM) in assay [5] (Escherichia coli, ATCC2452, read-out: E. coli IC50 (50% growth inhibitory concentration)). The IC50 in assay [5] (Escherichia coli, read-out: E. coli IC50) is 67.4 µg/mL (≈ 46.5 µM); in assay [6] (Pseudomonas aeruginosa, ATCC2108, read-out: P. aeruginosa IC50 (50% growth inhibitory concentration)), over 100 µg/mL; in assay [6] (Pseudomonas aeruginosa, read-out: P. aeruginosa IC50), over 100 µg/mL; in assay [7], over 100 µg/mL; in assay [8] (Enterococcus faecium, ATCC 700221 / VRE, read-out: VRE IC50 (50% growth inhibitory concentration)) it was over 100 µg/mL; in assay [8] (read-out: VRE IC50) it was over 100 µg/mL. In addition, the “C. albicans IC50” value in [1] was over 100 µg/mL. Also, in [2], the “A. fumigatus IC50” value was over 100 µg/mL. In addition, the “C. neoformans IC50” value in [3] is over 100 µg/mL. The MIC in assay [4] (Staphylococcus aureus, ATCC 1708 / MRSA) is 1.6 µg/mL (≈ 1.1 µM); in [5] (Escherichia coli, ATCC2452, read-out: E. coli MIC (minimum inhibitory concentration)) it was over 100 µg/mL; in [6] (Pseudomonas aeruginosa, ATCC2108, read-out: P. aeruginosa MIC (minimum inhibitory concentration)), over 100 µg/mL; in [8] (Enterococcus faecium, ATCC 700221 / VRE), over 100 µg/mL. The “VRE IC50” value in assay [8] was over 100 µg/mL.

Take `NCCC[C@](N)(C(=O)O)C(F)F` [α-Difluoromethylomithine]: in [9], the “T. brucei IC50” value amounted to 5.7 µg/mL. In addition, the “T. brucei IC90” value in assay [9] (90% inhibitory concentration) was found to be 6.6 µg/mL.
